Results taken from ChEMBL document CHEMBL1157099, “Proline-containing cyclopeptides from the marine sponge Phakellia fusca” (J Nat Prod, 2010).
pIC50: −log10 of the molar value. The source made the active and inactive calls. The calls are words filed in the database; no cut-off is given here. Residues, ends and D or L forms follow the SMILES beside them.

How the values were obtained:
P388 = assay: Cytotoxicity against mouse P388 cells after 48 hrs by MTT assay; format: functional, cell-based; conditions: for pIC50: P388, 48 h
Bel-7402 = assay: Cytotoxicity against human Bel7402 cells after 48 hrs by MTT assay; format: functional, cell-based

Row | SMILES | pIC50 (P388) | Activity (P388) | Activity (Bel-7402) | pIC50 (Bel-7402; Bel-7402, 48 h)
1 | CC[C@H](C)[C@@H]1NC(=O)[C@H](Cc2c[nH]c3ccccc23)NC(=O)[C@@H]2CCCN2C(=O)[C@H](CC(C)C)NC(=O)[C@@H]2CCCN2C(=O)[C@H]([C@@H](C)O)NC(=O)[C@H](CC(C)C)NC(=O)[C@@H]2CCCN2C1=O [PHAKELLISTATIN 15] (cyclo(IPLTPLPW)) | 5.07 | – | – | –
2 | CC[C@H](C)[C@@H]1NC(=O)[C@H](CC(C)C)NC(=O)[C@@H]2CCCN2C(=O)[C@H](C(C)C)NC(=O)[C@H](Cc2c[nH]c3ccccc23)NC(=O)[C@@H]2CCCN2C(=O)[C@H]([C@@H](C)CC)NC(=O)[C@@H]2CCCN2C1=O (cyclo(IPIPWVPL)) | – | inactive | inactive | –
3 | CC(C)[C@@H]1NC(=O)[C@H](C)NC(=O)[C@H](CCCNC(=N)N)NC(=O)[C@H](CO)NC(=O)[C@H](CC(=O)O)NC(=O)[C@H](Cc2ccccc2)NC(=O)[C@@H]2CCCN2C(=O)[C@H](Cc2ccc(O)cc2)NC(=O)[C@H]([C@@H](C)O)NC1=O [PHAKELLISTATIN 16] (cyclo(AVTYPFDSR)) | 5.27 | – | – | 4.84
